Source: patent US4338451A, “5-Hydroxymethyl oxazolidinones” (Delalande S.A., priority 1977, dated 1982)

How the values were obtained:
[1] = Acute toxicity in mice; details: mouse, in vivo, po, 1000 mg/kg
[2] = tested on: generalized trembling caused by an interperitoneal injection (200 mg/kg) of dl-5-hydroxytryptophane; assay: Test A: potentiation in mice of generalized trembling caused by dl-5-hydroxytryptophane; format: in vivo; details: Mus musculus, po, dl-5-hydroxytryptophane 200 mg/kg intraperitoneal, read-out: Test A ED 50
Description: Potentiation in mice of generalized trembling caused by an interperitoneal injection (200 mg/kg) of dl-5-hydroxytryptophane, following the protocol described by C. GOURET and G. RAYNAUD in J. Pharmacol. (Paris), (1974) 5, 231.

[3] = tested on: ptosis observed one hour after an intravenous injection (2 mg/kg) of reserpine; assay: Test B: antagonism of the ptosis caused by reserpine in mice; format: in vivo; details: Mus musculus, po, 1 h, p.o., reserpine 2 mg/kg intravenous, read-out: Test B ED 50
Description: Antagonism with respect to the ptosis observed one hour after an intravenous injection (2 mg/kg) of reserpine given to mice, following the protocol described by C.

[4] = tested on: pontogeniculo-occipital points (P.G.O.) caused by an intravenous injection (0.5 mg/kg) of reserpine; assay: Test C: reduction in the density of pontogeniculo-occipital points (P.G.O.) caused by reserpine in cats; format: in vivo; details: Felis catus, ip, reserpine 0.5 mg/kg intravenous, read-out: Test C ED 50
Description: Reduction in the density of pontogeniculo-occipital points (P.G.O.) caused by an intravenous injection (0.5 mg/kg) of reserpine given to cats, following the protocol described by A. COSTON and C. GOURET in J. Pharmacol. (Paris) (1976), 7, 409.

SMILES | mortality [1] [%] | ED50 [2] [mg/kg] | ED50 [3] [mg/kg] | ED50 [4] [mg/kg]
O=C1OC(CO)CN1c1ccc(OCc2cccc(Br)c2)cc1 (centres unmarked) [760 557] | 0 | 7.3 | 3.3 | 110
O=C1OC(CO)CN1c1ccc(OCc2cccc([N+](=O)[O-])c2)cc1 (centres unmarked) [770 234] | 0 | 1.5 | 0.7 | 9
